Literature values in publication PMC11904481 (ESMO Open, 2025).
Values joined by “and” are separate entries in the source; they are usually repeats but may differ in a detail not shown here. Equal values may be shown once.

System: patients
Details: cited from earlier work; for diarrhea / nausea: patients treated with oral ERK inhibitor
[1] = ocular TEAE, oral ERK inhibitor

## Cc1cnc(NC2CCOCC2)nc1-n1cnc(C(=O)N[C@H](CN)c2cc(F)cc(Cl)c2)c1 [ASN007]
  diarrhea: 30%
  nausea: 30%

## Cn1nccc1Nc1nccc(-c2ccn([C@H](CO)c3ccc(Cl)c(F)c3)c(=O)c2)n1 [GDC-0994, (S)-1-(1-(4-chloro-3-fluorophenyl)-2-hydroxyethyl)-4-(2-((1-methyl-1H-pyrazol-5-yl)amino)pyrimidin-4-yl)pyridin-2(1H)-one]
[1]
  blurred vision: 13%
  diarrhea: 49%
  nausea: 32%

## Cn1nccc1Nc1nccc(-c2cc3c(s2)C(C)(C)N(CCN2CCOCC2)C3=O)n1 [LY3214996]
[1]
  blurred vision: 15%

## CS[C@@]1(C(=O)Nc2ccc3[nH]nc(-c4ccc(OC(C)C)nc4)c3c2)CCN(CC(=O)N2CC=C(c3ccc(-c4ncn(C)n4)cc3)CC2)C1 [MK-8353]
[1]
  blurred vision: 8%
Oral ERK inhibitor
  oropharyngeal pain: 8%
  diarrhea: > 40% and 44%
  nausea: 28%

## CC(C)Nc1cc(-c2c[nH]c(C(=O)N[C@H](CO)c3cccc(Cl)c3)c2)c(Cl)cn1 [ulixertinib]
[1]
  retinopathy: 14%
  diarrhea: > 40% and 48%
  nausea: 42%
Phase I clinical trial, oral
  patients with dose reductions due to toxicity: 32%
